Assay results: patent US6989384B2, “Antipicornaviral compounds and compositions, their pharmaceutical uses, and materials for their synthesis” (Agouron Pharmaceuticals, Inc., priority 2000, dated 2006)
Read-outs that look alike come from different tables or passages of the source.

What was measured:
[1] = Cytotoxicity in mock-infected H1-HeLa cells (XTT); format: cell-based; conditions: human, two days, read-out: Toxicity CC50
Description: (§1) In this cell protection assay, the ability of compounds to protect cells against HRV infection was measured by the XTT dye reduction method, which is described in Weislow et al., J. Natl. Cancer Inst. 1989, vol. 81, 577–586.
(§2) H1-HeLa cells were infected with HRV-14 at a multiplicity of infection (m.o.i.) of 0.13 (virus particles/cell) or mock-infected with medium only. Infected or mock-infected cells were resuspended at 8×10^5 cells per mL, and incubated with appropriate concentrations of the compounds to be tested. Two days later, XTT/PMS was added to test plates and the amount of formazan produced was quantified spectrophotometrically at 450/650 nm. The EC50 value was calculated as the concentration of compound that increased the percentage of formazan production in compound-treated, virus-infected cells to 50% of that produced by compound-free, mock-infected cells. The 50% cytotoxic dose (CC50) was calculated as the concentration of compound that decreased the percentage of formazan produced in compound-treated, mock-infected cells to 50% of that produced by compound-free, mock-infected cells.
(§3) All strains of human rhinovirus (HRV) for use in this assay were purchased from American Type Culture Collection (ATCC), except for HRV serotype-14 (produced from the infectious cDNA clone constructed by Dr. Robert Rueckert, Institute for Molecular Virology, University of Wisconsin, Madison, Wis.). HRV stocks were propagated and viral assays were performed in H1-HeLa cells (ATCC). Cells were grown in minimal essential medium with 10% fetal bovine serum, available from Life Technologies (Gaithersburg, Md.).

[2] = test system: HRV-14; experiment: Antirhinoviral H1-HeLa cell culture assay (cell protection, XTT), HRV-14; format: cell-based, human rhinovirus; conditions: Rhinovirus B, read-out: Cell Protection EC50
Description: as §1, §2, §3
The compounds were tested against control compounds WIN 51711, WIN 52084, and WIN 54954 (obtained from Sterling-Winthrop Pharmaceuticals), Pirodavir (obtained from Janssen Pharmaceuticals), and Pleconaril (prepared according to the method described in Diana et al., J. Med. Chem 1995, vol. 38, 1355). Antiviral data obtained for the test compounds are shown in the Table, where all data are for HRV serotype-14 unless otherwise noted in parentheses.

[3] = molecular target: T1, rhinovirus 3C protease from HRV serotype-14 (Human rhinovirus 14, UniProt P03303); experiment: Inhibition of rhinovirus 3C protease activity (FRET assay), HRV-14; format: biochemical; conditions: read-out: Protease Inhibition kobs/I
T1 construct: Recombinant rhinovirus 3C proteases; made in house
Description: Stock solutions (50 mM, in DMSO) of various compounds were prepared; dilutions were in the same solvent. Recombinant rhinovirus 3C proteases (see Birch et al., “Purification of recombinant human rhinovirus 14 3C protease expressed in Escherichia coli,” Protein Expr. Pur. 1995, 6(5), 609–618) from serotypes 14, 16, and 2 were prepared by the following standard chromatographic procedures: (1) ion exchange using Q Sepharose Fast Flow from Pharmacia; (2) affinity chromatography using Affi-Gel Blue from Biorad; and (3) sizing using Sephadex G-100 from Pharmacia. Each assay sample contained 2% DMSO, 50 mM tris pH 7.6, 1 mM EDTA, a test compound at the indicated concentration, approximately 1 μM substrate, and 50–100 nM protease. The kobs/I values were obtained from reactions initiated by addition of enzyme rather than substrate. RVP activity was measured in the fluorescence resonance energy transfer assay. The substrate was (N-terminal) DABCYL-(Gly-Arg-Ala-Val-Phe-Gln-Gly-Pro-Val-Gly)-EDANS. In the uncleaved peptide, the EDANS fluorescence was quenched by the proximal DABCYL group. When the peptide was cleaved, the quenching was relieved, and activity was measured as an increase in fluorescence signal. In the Table, unless otherwise indicated, all data are for rhinovirus 3C protease from HRV serotype-14 (produced from the infectious cDNA clone constructed by Dr. Robert Rueckert, Institute for Molecular Virology, University of Wisconsin, Madison, Wis.). The data in the column designated kobs/[I] were measured from progress curves in enzyme start experiments.

[4] = HRV14, 48 h, HRV-14, H1-HeLa cells, XTT, two days
[5] = HRV-14 3C protease, progress curves, enzyme start

T1 sequence (P03303 1538-1719): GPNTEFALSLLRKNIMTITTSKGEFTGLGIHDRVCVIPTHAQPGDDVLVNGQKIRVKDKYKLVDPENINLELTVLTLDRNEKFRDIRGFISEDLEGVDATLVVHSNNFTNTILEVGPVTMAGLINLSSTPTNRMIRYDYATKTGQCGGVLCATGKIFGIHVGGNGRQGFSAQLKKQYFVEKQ

EC50 [2, 4] [µM] | kinact/KI [3, 5] [M⁻¹ s⁻¹] | SMILES | CC50 at 2 days [1] [µM] | EC50 ([2]; HRV14, H1-HeLa, 48 h) [µM] | kinact/KI [3] [M⁻¹ s⁻¹]
 |  | CCOC(=O)/C=C/[C@H](C[C@@H]1CCNC1=O)NC(=O)c1ccc2cc(C)ccc2c1 [Compound 51, 4S-[(6-Methyl-naphthalene-2-carbonyl)-amino]-5-(2-oxo-pyrrolidin-3S-yl)-pent-2-enoic acid ethyl ester] | > 100 | 0.88 | 5020
 |  | CCOC(=O)/C=C/[C@H](C[C@@H]1CCNC1=O)NC(=O)c1cc(-c2ccccc2)oc1C [Compound 45, 4S-[(2-Methyl-5-phenyl-furan-3-carbonyl)-amino]-5-(2-oxo-pyrrolidin-3S-yl)-pent-2-enoic acid ethyl ester] | > 100 | 1.94 | 4740
7.1 | 110 | CCOC(=O)/C=C/[C@H](CCC(N)=O)NC(=O)c1ccc2ccccc2n1 [Compound 31, 6-carbamoyl-4S-[(quinoline-2-carbonyl)-amino]-hex-2-enoic acid ethyl ester] | > 100 |  | 
1 | 71 | CCOC(=O)/C=C/[C@H](CCC(N)=O)NC(=O)c1cc2ccccc2[nH]1 [Compound 38, 6-carbamyl-4S-[(1H-indole-2-carbonyl)-amino]-hex-2-enoic acid ethyl ester] | > 100 |  | 
3.9 | 45 | CCOC(=O)/C=C/[C@H](CCC(N)=O)NC(=O)c1ccc(N(C)C)cc1 [Compound 27] | > 100 |  | 
1.8 | 83 | CCOC(=O)/C=C/[C@H](CCC(N)=O)NC(=O)c1nn(-c2ccccc2)nc1C [Compound 32, 6-carbamoyl-4S-[(5-methyl-2-phenyl-2H-[1,2,3]triazole-4-carbonyl)-amino]-hex-2-enoic acid ethyl ester] | > 100 |  | 
31.6 | 62 | CCOC(=O)/C=C/[C@H](CCC(N)=O)NC(=O)/C=C/c1ccccc1 [Compound 29, 6-carbamoyl-4S-(3-phenyl-acryloylamino)-hex-2-enoic acid ethyl ester] | > 100 |  | 
0.03 |  | CCOC(=O)c1ccc(OCCC2CCN(c3ccc(C)nn3)CC2)cc1 [Pirodavir, reference compound] | > 10 |  | 
 |  | CCOC(=O)/C=C/[C@H](C[C@@H]1CCNC1=O)NC(=O)COc1ccc(Cl)c(Cl)c1 [Compound 62, 4S-[2-(3,4-dichloro-phenoxy)-acetylamino]-5-(2-oxo-pyrrolidin-3S-yl)-pent-2-enoic acid ethyl ester] | > 10 | 6.1 | 134
 |  | CCOC(=O)/C=C/[C@H](C[C@@H]1CCNC1=O)NC(=O)c1cc2cc(C)ccc2[nH]1 [Compound 43, 4-[(5-Methyl-1H-indole-2-carbonyl)-amino]-5-(2-oxo-pyrrolidin-3-yl)-pent-2-enoic acid ethyl ester] | > 100 | 2.14 | 3460
 |  | CCOC(=O)/C=C/[C@H](C[C@@H]1CCNC1=O)NC(=O)/C=C/c1cccc(Br)c1 [Compound 3, 4S-[3-(3-bromo-phenyl)-acryloylamino]-5-(2-oxo-pyrrolidin-3S-yl)-pent-2-enoic acid ethyl ester] | > 10 | 1.4 | 2560
 |  | CCOC(=O)/C=C/[C@H](C[C@@H]1CCNC1=O)NC(=O)/C=C/c1ccc2c(c1)OCO2 [Compound 9, 4S-(3-benzo[1,3]dioxol-5-yl-acryloylamino)-5-(2-oxo-pyrrolidin-3S-yl)-pent-2-enoic acid ethyl ester] | > 10 | 1.81 | 1960
 |  | CCOC(=O)/C=C/[C@H](C[C@@H]1CCNC1=O)NC(=O)/C=C/c1ccc(F)c(Br)c1 [Compound 48, 4S-[3-(3-Bromo-4-fluoro-phenyl)-acryloylamino]-5-(2-oxo-pyrrolidin-3S-yl)-pent-2-enoic acid ethyl ester] | > 100 | 0.625 | 2860
> 100 | 10 | CCOC(=O)/C=C/[C@H](CCC(N)=O)NC(=O)c1ccccc1COC(=O)c1ccccc1 [Compound 36] | > 100 |  | 
> 100 | 6 | CCOC(=O)/C=C/[C@H](CCC(N)=O)NC(=O)c1ccccc1CCc1ccccc1 [Compound 37, 6-carbamoyl-4S-(2-phenethyl-benzoylamino)-hex-2-enoic acid ethyl ester] | > 100 |  | 
 |  | CCOC(=O)/C=C/[C@H](C[C@@H]1CCNC1=O)NC(=O)N[C@@H](CC(C)C)C(=O)OCC [Compound 24, 4S-[3-(1S-ethoxycarbonyl-3-methyl-butyl)-ureido]-5-(2-oxo-pyrrolidin-3S-yl)-pent-2-enoic acid ethyl ester] | > 10 | 4.6 | 1050
3.2 | 345 | CCOC(=O)/C=C/[C@H](CCC(N)=O)NC(=O)/C=C/c1cccc(Br)c1 [Compound 30, 4S-[3-(3-bromophenyl)-acryloylamino]-6-carbamoyl-hex-2-enoic acid ethyl ester] | > 100 |  | 
 |  | CCOC(=O)/C=C/[C@H](C[C@@H]1CCNC1=O)NC(=O)c1cc2cc(OC)ccc2[nH]1 [Compound 41, 4S-[(5-Methoxy-1H-indole-2-carbonyl)-amino]-5-(2-oxo-pyrrolidin-3S-yl)-pent-2-enoic acid ethyl ester] | > 100 | 2.36 | 2190
 |  | CCOC(=O)/C=C/[C@H](C[C@@H]1CCNC1=O)NC(=O)Nc1cccc2ccccc12 [Compound 56, 4S-(3-naphthalen-1-yl)-5-(2-oxo-pyrrolidin-3S-yl)-pent-2-enoic acid ethyl ester] | > 10 | > 10 | 117
0.01 |  | Cc1cc(CCCOc2c(C)cc(-c3noc(C(F)(F)F)n3)cc2C)on1 [Pleconaril, reference compound] | > 10 |  | 
 |  | CCOC(=O)/C=C/[C@H](C[C@@H]1CCNC1=O)NC(=O)/C=C/c1ccc([N+](=O)[O-])cc1 [Compound 15, 4S-[3-(4-nitro-phenyl)-acryloylamino]-5-(2-oxo-pyrrolidin-3S-yl)-pent-2-enoic acid ethyl ester] | > 10 | 1.53 | 2020
 |  | CCOC(=O)/C=C/[C@H](C[C@@H]1CCNC1=O)NC(=O)C1=Cc2ccccc2OC1 [Compound 67, 4S-[(2H-chromene-3-carbonyl)-amino]-5-(2-oxopyrrolidin-3S-yl)-pent-2-enoic acid ethyl ester] | > 100 | 1.19 | 886
> 100 | 10 | CCOC(=O)/C=C/[C@H](CCC(N)=O)NC(=O)c1ccccc1 [Compound 34] | > 100 |  | 
 |  | CCOC(=O)/C=C/[C@H](C[C@@H]1CCNC1=O)NC(=O)c1cc2cc(CC)ccc2[nH]1 [Compound 8, 4S-[(5-ethyl-1H-indole-2-carbonyl)-amino]-5-(2-oxo-pyrrolidin-3S-yl)-pent-2-enoic acid ethyl ester] | > 10 | 2.67 | 980
 |  | CCOC(=O)/C=C/[C@H](C[C@@H]1CCNC1=O)NC(=O)/C=C/c1ccc(C)c(Br)c1 [Compound 23, 4S-[3-(3-bromo-4-methyl-phenyl)-acryloylamino]-5-(2-oxo-pyrrolidin-3S-yl)-pent-2-enoic acid ethyl ester] | > 10 | 1.29 | 4080
